{
  "source": "patent US20230372382A1",
  "about": "“USE OF ADENOSINE DIPHOSPHATE RIBOSE FOR ADJUVANT THERAPY WITH RADIATION AND/OR ANTI-CANCER TREATMENT” (PearlsInMires Co., Ltd., priority 2021, published 2023)",
  "key": {"Hep G2 cells [1]": {"tested_on": "Hep G2 cells", "test": "ADP-ribose quantitative analysis (ELISA) in cancer cells", "type": "cell-based", "conditions": "8 μM ADP-ribose, 24 hours, P<0.001", "method": "After culturing, the culture medium was removed, the cells were washed with phosphate-buffered saline, and then RIPA buffer was added and the cells were left on ice for 20 minutes. After scraping the cells, the cells were put in a centrifuge tube and centrifuged for 10 minutes at 10,000 g and 4° C. The supernatant was obtained, and 1% SDS was added, and then the reaction product was boiled at 100° C. for 5 minutes and cooled on ice. The supernatant was centrifuged again at 10,000 g and 4° C. for 10 minutes to obtain the final supernatant, and ADP-ribose was quantitatively analyzed and compared using an ELISA analysis kit (Cell Biolabs, Inc., San Diego, CA, USA).\n5×10^5 Hep G2 cells were divided into the untreated group and 8 μM ADP-ribose-treated group and cultured in Eagle's Minimum Essential Medium supplemented with 10% fetal calf serum+100 units/ml penicillin+100 μg/ml streptomycin under conditions of 37° C. and 5% CO2 for 24 hours. The medium of the cultured cells was removed, and the supernatant prepared by treatment with RIPA buffer and 1% sodium dodecyl sulfate (SDS) was used for ELISA analysis to detect and analyze ADP-ribose."}, "AsPC-1 cells": {"tested_on": "AsPC-1 cells", "test": "Cancer cell death verification (MTT cell viability)", "type": "cell-based", "description": "(§1) 3×10^3 Brain cancer (U-87MG), lung cancer (H1975), pancreatic cancer (Aspc-1), liver cancer (Hep G2), breast cancer (MDA-MB-231), colon cancer (HCT116), kidney cancer (Caki-1), gastric cancer (SNU-1) and ovarian cancer (OVCAR-3) cells were cultured in a 96-well plate under conditions of 37° C. and 5% CO2 for 24 hours, and then each cancer cell was treated with ADP-ribose at each concentration. After culturing for 24 hours under conditions of 37° C. and 5% CO2 again, 10 μl of 3-(4,5-dimethylthiazol-2-yl)-2,5-diphenyltetrazolium bromide reagent was added to each well and reacted for 1 hour. After the reaction was completed, the reagent was removed, 200 μl of dimethyl sulfoxide was added to each well, and the absorbance was measured to determine the concentration of half-lethality and maximum lethality compared to untreated cells.\n3×10^3 AsPC-1 cells were cultured in a 96-well plate for 24 hours under conditions of 37° C. and 5% CO2, treated with ADP-ribose at concentrations of 0.125, 0.25, 0.5, 1, 2, 4, 8, 16, and 32 μM, respectively, and cultured again for 24 hours under conditions of 37° C. and 5% CO2. Then, 10 μl of 3-(4,5-dimethylthiazol-2-yl)-2,5-diphenyltetrazolium bromide reagent was added to each well and reacted for 1 hour. After the reaction was completed, the reagent was removed, 200 μl of dimethyl sulfoxide was added to each well, and the absorbance was measured to confirm cell viability."}, "Hep G2 cells [2]": {"tested_on": "Hep G2 cells", "test": "Cancer cell death verification (MTT cell viability)", "type": "cell-based", "description": "as §1\n3×10^3 Hep G2 cells were cultured in a 96-well plate for 24 hours under conditions of 37° C. and 5% CO2, treated with ADP-ribose at concentrations of 0.125, 0.25, 0.5, 1, 2, 4, 8, 16, and 32 μM, respectively, and cultured again for 24 hours under conditions of 37° C. and 5% CO2. Then, 10 μl of 3-(4,5-dimethylthiazol-2-yl)-2,5-diphenyltetrazolium bromide reagent was added to each well and reacted for 1 hour. After the reaction was completed, the reagent was removed, 200 μl of dimethyl sulfoxide was added to each well, and the absorbance was measured to confirm cell viability."}, "Caki-1 cells": {"tested_on": "Caki-1 cells", "test": "Cancer cell death verification (MTT cell viability)", "type": "cell-based", "description": "as §1\n(§2) Then, 10 μl of 3-(4,5-dimethylthiazol-2-yl)-2,5-diphenyltetrazolium bromide reagent was added to each well and reacted for 1 hour. After the reaction was completed, the reagent was removed, 200 μl of dimethyl sulfoxide was added to each well, and the absorbance was measured to confirm cell viability."}, "OVCAR-3 cells": {"tested_on": "OVCAR-3 cells", "test": "Cancer cell death verification (MTT cell viability)", "type": "cell-based", "conditions": "OVCAR-3, 32 μM ADP-ribose, 24 hours", "description": "3×10^3 SNU-1 or OVCAR-3 cells were cultured in a 96-well plate for 24 hours under conditions of 37° C. and 5% CO2, treated with ADP-ribose at concentrations of 32 μM, respectively, and cultured again for 24 hours under conditions of 37° C. and 5% CO2. Then, 10 μl of 3-(4,5-dimethylthiazol-2-yl)-2,5-diphenyltetrazolium bromide reagent was added to each well and reacted for 1 hour. After the reaction was completed, the reagent was removed, 200 μl of dimethyl sulfoxide was added to each well, and the absorbance was measured to confirm cell viability."}, "[3]": {"tested_on": "Pancreatic cancer (AsPC-1) cells", "test": "Cell death by combination treatment with anti-cancer drug (MTT)", "type": "cell-based", "conditions": "Homo sapiens, ASPC1, 24 h", "description": "3×10^3 Brain cancer (U-87MG), lung cancer (H1975), pancreatic cancer (Aspc-1), liver cancer (Hep G2), breast cancer (MDA-MB-231), and colon cancer (HCT116) cells were cultured in a 96-well plate for 24 hours under conditions of 37° C. and 5% Ca2, respectively. […] After the treatment was terminated, the cells were cultured for 24 hours under conditions of 37° C. and 5% CO2 again, 10 μl of 3-(4,5-dimethylthiazol-2-yl)-2,5-diphenyltetrazolium bromide reagent was added to each well and reacted for 1 hour. After the reaction was completed, the reagent was removed, 200 μl of dimethyl sulfoxide was added to each well, and the absorbance was measured to compare the degree of cell death.\nas §2"}, "[4]": {"tested_on": "Lung cancer (H1975) cells", "test": "Xenograft model, combination with anti-cancer drug, tumor volume", "type": "in vivo, BALB/c nude mice", "method": "Brain (U-87MG), lung (H1975), pancreatic (AsPC-1), or liver (Hep G2) cells (1×10^7 cells) were inoculated into 5-week-old BALB/c nude mice on the back flank, respectively. Then, when tumors were grown to a volume of approximately 150 mm^3, the mice were divided into the control group (control), an anti-cancer drug alone treatment group, and a combination treatment group. […] The tumor size was measured every 6 days using a digital caliper, and the results of changes in tumor volume were compared by the group.\nLung cancer (H1975) cells (1×10^7) were inoculated into 5-week-old BALB/c nude mice on the back flank, and the mice were divided into three groups: the control group (Control), single oral administration of 1 mg/kg of osimertinib, and combination administration of osimertinib+10 mg/kg of ADP-ribose. When the tumors were grown to a volume of approximately 150 mm^3, osimertinib was administered orally twice a week, and ADP-ribose at 10 mg/kg was injected subcutaneously 3 times a week. The tumor size was measured using a digital caliper, and the results of changes in tumor volume were compared by the group."}, "U-87MG cells": {"tested_on": "U-87MG cells", "test": "Cell death by combination treatment of ADP-ribose and radiation (MTT)", "type": "cell-based", "conditions": "8 μM ADP-ribose in combination with 2 Gy radiation, 24 hours, P<0.001, 2 Gy alone about 88%", "description": "3×10^3 Brain cancer (U-87MG) cells were cultured in a 96-well plate for 24 hours under conditions of 37° C. and 5% CO2, treated with 8 μM of ADP-ribose and 2 or 5 Gy dose of radiation individually or in combination, and cultured for 24 hours under conditions of 37° C. and 5% CO2 again. Then, 10 μl of 3-(4,5-dimethylthiazol-2-yl)-2,5-diphenyltetrazolium bromide reagent was added to each well and reacted for 1 hour. After the reaction was completed, the reagent was removed, 200 μl of dimethyl sulfoxide was added to each well, and the absorbance was measured to confirm cell viability."}, "H1975 cells": {"tested_on": "H1975 cells", "test": "Cell death by combination treatment of ADP-ribose and radiation (MTT)", "type": "cell-based", "conditions": "H1975, 2 μM ADP-ribose in combination with 2 Gy radiation, 24 hours, P<0.001; 2 Gy alone about 75%", "description": "3×10^3 H1975 cells were cultured in a 96-well plate for 24 hours under conditions of 37° C. and 5% Ca2, treated with 2 μM of ADP-ribose and 2 or 5 Gy dose of radiation individually or in combination, and cultured for 24 hours under conditions of 37° C. and 5% CO2 again. Then, 10 μl of 3-(4,5-dimethylthiazol-2-yl)-2,5-diphenyltetrazolium bromide reagent was added to each well and reacted for 1 hour. After the reaction was completed, the reagent was removed, 200 μl of dimethyl sulfoxide was added to each well, and the absorbance was measured to confirm cell viability."}, "[5]": {"tested_on": "Breast cancer (MDA-MB-231) cells", "test": "Xenograft model, combination with radiation, tumor volume", "type": "in vivo, BALB/c nude mice", "conditions": "MDA-MB-231 xenograft", "method": "Brain cancer (U-87MG), pancreatic cancer (AsPC-1), breast cancer (MDA-MB-231), or kidney cancer (Caki-1) cells (1×10^7 cells) were inoculated into 5-week-old BALB/c nude mice on the back flank, respectively. Then, when tumors were grown to a volume of approximately 150 mm^3, the mice were divided into three groups: the control group (Control), 2 Gy dose of radiation alone, and a combination administration of 2 Gy dose of radiation+10 mg/kg of ADP-ribose (subcutaneous administration, 3 times a week). The irradiation was performed with an X-Rad 320 irradiator (Precision X-ray, North Branford, CT, USA), wherein the mice were placed by maintaining an appropriate distance from the radiation source for irradiation with a predetermined radiation dose. A lead shield was used to protect the body parts or organs from exposure to radiation, other than the cancerous part of the mouse. The irradiation was performed with a total of 2 Gy of radiation fractionated into two doses of 1 Gy each (for 2 days) at a dose rate of 300 kVp and 150 cGy/min using an X-ray beam filter composed of 12.5 mA and 2.0 mm Al. The tumor size was measured every 6 days using a digital caliper, and the results of changes in tumor volume were compared by the group.\nBreast cancer (MDA-MB-231) cells (1×10^7) were inoculated into 5-week-old BALB/c nude mice on the back flank, and the mice were divided into three groups: the control group (Control), 2 Gy dose of radiation alone, and combination administration of 2 Gy dose radiation+20 mg/kg of ADP-ribose. When the tumors were grown to a volume of approximately 150 mm^3, 2 Gy dose of radiation was irradiated twice at 1 Gy each, and 20 mg/kg of ADP-ribose was injected subcutaneously 3 times a week. The tumor size was measured using a digital caliper, and the results of changes in tumor volume were compared by the group."}, "[6]": {"conditions": "ADP-ribose 10 mg/kg s.c. in combination with osimertinib 1 mg/kg, P<0.001"}, "[7]": {"conditions": "ADP-ribose 20 mg/kg s.c. + 2 Gy radiation, P<0.001"}},
  "data": [
    {"smiles": "Nc1ncnc2c1ncn2[C@@H]1O[C@H](COP(=O)(O)OP(=O)(O)OC[C@H]2O[C@@H](O)C(O)C2O)C(O)C1O", "note": "(some centres unmarked) [ADP-ribose, adenosine diphosphate ribose]", "values": [
      {"measurement": "amount of ADP-ribose in cells compared to the control group", "setting": "Hep G2 cells [1]", "result": "remarkably increased significantly"},
      {"measurement": "maximum lethal dose (concentration at which almost all cells were killed)", "setting": "AsPC-1 cells; AsPC-1, 24 hours, MTT", "result": 32, "unit": "µM"},
      {"measurement": "cancer cell growth under a microscope", "setting": "AsPC-1 cells; AsPC-1, ADP-ribose treated vs control, FIG. 4A", "result": "inhibited from growing and killed"},
      {"measurement": "IC50", "setting": "AsPC-1 cells; Homo sapiens, ASPC1, 24 h, read-out: half-lethal dose (concentration at which about half of the cells were killed)", "result": "~2", "unit": "µM"},
      {"measurement": "maximum lethal dose (concentration at which almost all cells were killed)", "setting": "Hep G2 cells [2]; Hep G2, 24 hours, MTT", "result": 32, "unit": "µM"},
      {"measurement": "cancer cell growth under a microscope", "setting": "Hep G2 cells [2]; Hep G2, ADP-ribose treated vs control, FIG. 5A", "result": "inhibited from growing and killed"},
      {"measurement": "IC50", "setting": "Hep G2 cells [2]; Homo sapiens, HepG2, 24 h, read-out: half-lethal dose (concentration at which about half of the cells were killed)", "result": "~4", "unit": "µM"},
      {"measurement": "maximum lethal dose (concentration at which almost all cells were killed)", "setting": "Caki-1 cells; Caki-1, 24 hours, MTT", "result": 32, "unit": "µM"},
      {"measurement": "cancer cell growth under a microscope", "setting": "Caki-1 cells; Caki-1, ADP-ribose treated vs control, FIG. 8A", "result": "inhibited from growing and killed"},
      {"measurement": "IC50", "setting": "Caki-1 cells; Homo sapiens, CAKI-1, 24 h, read-out: half-lethal dose (concentration at which about half of the cells were killed)", "result": "~16", "unit": "µM"},
      {"measurement": "cell death compared to the control group", "setting": "OVCAR-3 cells", "result": "killed significantly"},
      {"measurement": "viability at 1.6 µM", "setting": "[3]", "result": "~1", "unit": "%"},
      {"measurement": "reduction of tumor volume compared to the control group", "setting": "[4]; [6]", "result": "about 81%"},
      {"measurement": "reduction of tumor volume compared to the group treated with osimertinib alone", "setting": "[4]; [6]", "result": "about 77%"},
      {"measurement": "final tumor volume", "setting": "[4]; ADP-ribose 10 mg/kg subcutaneous 3 times a week in combination with osimertinib 1 mg/kg, control about 2265.5", "result": "about 424.7 mm^3"},
      {"measurement": "survival rate of cancer cells", "setting": "U-87MG cells", "result": "about 12.3%"},
      {"measurement": "survival rate of cancer cells", "setting": "H1975 cells", "result": "about 8%"},
      {"measurement": "reduction of tumor volume compared to the control group", "setting": "[5]; [7]", "result": "about 72.6%"},
      {"measurement": "reduction of tumor volume compared to the group treated with 2 Gy dose of radiation alone", "setting": "[5]; [7]", "result": "about 56.1%"},
      {"measurement": "final tumor volume", "setting": "[5]; ADP-ribose 20 mg/kg subcutaneous 3 times a week + 2 Gy radiation, control about 2336.1, 2 Gy alone about 1459.6", "result": "about 640.4 mm^3"}
    ]}
  ]
}
